Test results: ChEMBL document CHEMBL4715763, “A simple, one pot synthesis of furo[3,2-c]chromenes and evaluation of antimicrobial activity” (2016)
Values after ≈ are worked out from the molar mass of the structure shown. Active and inactive are the calls of the source. The rule behind the calls is not given here.

What was measured:
Format in all cases: functional
Staphylococcus aureus [1] = assay: Antimicrobial activity against Staphylococcus aureus MTCC 96 assessed as inhibition zone measured after 24 hrs incubation by well diffusion method
Bacillus subtilis [2] = assay: Antimicrobial activity against Bacillus subtilis MTCC 121 assessed as inhibition zone measured after 24 hrs incubation by well diffusion method
Staphylococcus aureus [3] = assay: Antimicrobial activity against Staphylococcus aureus MLS-16 MTCC 2940 assessed as inhibition zone measured after 24 hrs incubation by well diffusion method
Pseudomonas aeruginosa = assay: Antimicrobial activity against Pseudomonas aeruginosa MTCC 2453 assessed as inhibition zone measured after 24 hrs incubation by well diffusion method
Candida albicans = assay: Antimicrobial activity against Candida albicans MTCC 3017 assessed as inhibition zone measured after 24 hrs incubation by well diffusion method
Micrococcus luteus [4] = assay: Antimicrobial activity against Micrococcus luteus MTCC 2470 assessed as inhibition zone measured after 24 hrs incubation by well diffusion method
Raoultella planticola [5] = assay: Antimicrobial activity against Klebsiella planticola MTCC 530 assessed as inhibition zone measured after 24 hrs incubation by well diffusion method
Escherichia coli [6] = assay: Antimicrobial activity against Escherichia coli MTCC 739 assessed as inhibition zone measured after 24 hrs incubation by well diffusion method
Bacillus subtilis [7] = assay: Bactericidal activity against Bacillus subtilis MTCC 121 assessed as bacterial killing after 24 hrs incubation by NCCLS protocol-based broth microdilution method
Micrococcus luteus [8] = assay: Bactericidal activity against Micrococcus luteus MTCC 2470 assessed as bacterial killing after 24 hrs incubation by NCCLS protocol-based broth microdilution method
Raoultella planticola [9] = assay: Bactericidal activity against Klebsiella planticola MTCC 530 assessed as bacterial killing after 24 hrs incubation by NCCLS protocol-based broth microdilution method
Escherichia coli [10] = assay: Bactericidal activity against Escherichia coli MTCC 739 assessed as bacterial killing after 24 hrs incubation by NCCLS protocol-based broth microdilution method

Compound | MIC (Staphylococcus aureus [1]) | MIC (Bacillus subtilis [2]) | MIC (Staphylococcus aureus [3]) | MIC (Pseudomonas aeruginosa) | MIC (Candida albicans) [µg/mL] | MIC (Micrococcus luteus [4]) | MIC (Raoultella planticola [5]) | MIC (Escherichia coli [6]) | MBC (Bacillus subtilis [7]) | MBC (Micrococcus luteus [8]) [µg/mL] | MBC (Raoultella planticola [9]) [µg/mL] | MBC (Escherichia coli [10])
COC(=O)C1(C#N)Oc2c(c(=O)oc3ccccc23)C1c1ccc(C)cc1 (stereo unspecified) | > 250 µg/mL | > 250 µg/mL | > 250 µg/mL | > 250 µg/mL | > 250 | 125 µg/mL (≈ 346 µM) | > 250 µg/mL | > 250 µg/mL |  |  |  | 
CCOC(=O)C1(C#N)Oc2c(c(=O)oc3ccccc23)C1c1ccc(C(F)(F)F)cc1 (stereo unspecified) | > 250 µg/mL | 250 µg/mL (≈ 582 µM) | > 250 µg/mL | > 250 µg/mL | > 250 | > 250 µg/mL | 250 µg/mL (≈ 582 µM) | > 250 µg/mL |  |  |  | 
CC(C)OC(=O)C1(C#N)Oc2c(c(=O)oc3ccccc23)C1c1ccccc1 (stereo unspecified) | 125 µg/mL (≈ 333 µM) | 250 µg/mL (≈ 666 µM) | 125 µg/mL (≈ 333 µM) | > 250 µg/mL | > 250 | 15.6 µg/mL (≈ 41.6 µM) | 15.6 µg/mL (≈ 41.6 µM) | > 250 µg/mL | inactive | 62.5 (≈ 166 µM) | 62.5 (≈ 166 µM) | inactive
COC(=O)C1(C#N)Oc2c(c(=O)oc3ccccc23)C1c1ccc(O)cc1 (stereo unspecified) | > 250 µg/mL | > 250 µg/mL | > 250 µg/mL | > 250 µg/mL | > 250 | > 250 µg/mL | > 250 µg/mL | > 250 µg/mL |  |  |  | 
COC(=O)C1(C#N)Oc2c(c(=O)oc3ccccc23)C1c1ccc(C(F)(F)F)cc1 (stereo unspecified) | > 250 µg/mL | > 250 µg/mL | > 250 µg/mL | > 250 µg/mL | > 250 | > 250 µg/mL | > 250 µg/mL | > 250 µg/mL |  |  |  | 
COC(=O)C1(C#N)Oc2c(c(=O)oc3ccc(C)cc23)C1c1ccccc1 (stereo unspecified) | > 250 µg/mL | > 250 µg/mL | > 250 µg/mL | > 250 µg/mL | > 250 | > 250 µg/mL | > 250 µg/mL | > 250 µg/mL |  |  |  | 
COC(=O)C1(C#N)Oc2c(c(=O)oc3ccccc23)C1c1ccc(Br)cc1 (stereo unspecified) | > 250 µg/mL | > 250 µg/mL | > 250 µg/mL | > 250 µg/mL | > 250 | > 250 µg/mL | > 250 µg/mL | 12.5 µg/mL (≈ 29.3 µM) |  |  |  | 
COC(=O)C1(C#N)Oc2c(c(=O)oc3ccccc23)C1c1ccc(Cl)cc1 (stereo unspecified) | > 250 µg/mL | > 250 µg/mL | > 250 µg/mL | > 250 µg/mL | > 250 | > 250 µg/mL | > 250 µg/mL | 62.5 µg/mL (≈ 164 µM) |  |  |  | 
COC(=O)C1(C#N)Oc2c(c(=O)oc3ccccc23)C1c1ccc(F)cc1 (stereo unspecified) | 62.5 µg/mL (≈ 171 µM) | 7.8 µg/mL (≈ 21.4 µM) | 62.5 µg/mL (≈ 171 µM) | > 250 µg/mL | 62.5 (≈ 171 µM) | 7.8 µg/mL (≈ 21.4 µM) | 7.8 µg/mL (≈ 21.4 µM) | 15.6 µg/mL (≈ 42.7 µM) | 62.5 µg/mL (≈ 171 µM) | 62.5 (≈ 171 µM) | 62.5 (≈ 171 µM) | 62.5 µg/mL (≈ 171 µM)
CCOC(=O)C1(C#N)Oc2c(c(=O)oc3ccccc23)C1c1cccc2ccccc12 (stereo unspecified) | > 250 µg/mL | > 250 µg/mL | > 250 µg/mL | > 250 µg/mL | > 250 | > 250 µg/mL | > 250 µg/mL | > 250 µg/mL |  |  |  | 
COC(=O)C1(C#N)Oc2c(c(=O)oc3ccccc23)C1c1ccccc1 (stereo unspecified) | > 250 µg/mL | 62.5 µg/mL (≈ 180 µM) | > 250 µg/mL | > 250 µg/mL | > 250 | > 250 µg/mL | > 250 µg/mL | > 250 µg/mL |  |  |  | 
CCOC(=O)C1(C#N)Oc2c(c(=O)oc3ccccc23)C1c1ccc([N+](=O)[O-])cc1 (stereo unspecified) | > 250 µg/mL | > 250 µg/mL | > 250 µg/mL | > 250 µg/mL | > 250 | > 250 µg/mL | > 250 µg/mL | > 250 µg/mL |  |  |  | 
CCOC(=O)C1(C#N)Oc2c(c(=O)oc3ccccc23)C1c1ccccc1 (stereo unspecified) | > 250 µg/mL | > 250 µg/mL | > 250 µg/mL | > 250 µg/mL | > 250 | > 250 µg/mL | > 250 µg/mL | > 250 µg/mL |  |  |  | 
COC(=O)C1(C#N)Oc2c(c(=O)oc3ccccc23)C1c1cc(OC)c(OC)c(OC)c1 (stereo unspecified) | 62.5 µg/mL (≈ 143 µM) | > 250 µg/mL | > 250 µg/mL | > 250 µg/mL | > 250 | > 250 µg/mL | > 250 µg/mL | > 250 µg/mL |  |  |  | 
CCOC(=O)C1(C#N)Oc2c(c(=O)oc3ccc(C)cc23)C1c1ccccc1 (stereo unspecified) | > 250 µg/mL | > 250 µg/mL | > 250 µg/mL | > 250 µg/mL | > 250 | > 250 µg/mL | 250 µg/mL (≈ 666 µM) | > 250 µg/mL |  |  |  | 
Clc1ccc(COC(Cn2ccnc2)c2ccc(Cl)cc2Cl)c(Cl)c1 (stereo unspecified) [MICONAZOLE] | inactive | inactive | inactive | inactive | 7.8 (≈ 18.7 µM) | inactive | inactive | inactive |  |  |  | 
O=C(O)c1cn(C2CC2)c2cc(N3CCNCC3)c(F)cc2c1=O [CIPROFLOXACIN] | 0.9 µg/mL (≈ 2.72 µM) | 0.9 µg/mL (≈ 2.72 µM) | 0.9 µg/mL (≈ 2.72 µM) | 0.9 µg/mL (≈ 2.72 µM) |  | 0.9 µg/mL (≈ 2.72 µM) | 0.9 µg/mL (≈ 2.72 µM) | 0.9 µg/mL (≈ 2.72 µM) | 1.17 µg/mL (≈ 3.53 µM) | 1.17 (≈ 3.53 µM) | 1.17 (≈ 3.53 µM) | 1.17 µg/mL (≈ 3.53 µM)
COC(=O)C1(C#N)Oc2c(c(=O)oc3ccccc23)C1c1ccc([N+](=O)[O-])cc1 (stereo unspecified) | > 250 µg/mL | > 250 µg/mL | > 250 µg/mL | > 250 µg/mL | > 250 | > 250 µg/mL | > 250 µg/mL | > 250 µg/mL |  |  |  | 
COC(=O)C1(C#N)Oc2c(c(=O)oc3ccccc23)C1c1ccc(C#N)cc1 (stereo unspecified) | > 250 µg/mL | > 250 µg/mL | > 250 µg/mL | > 250 µg/mL | > 250 | > 250 µg/mL | > 250 µg/mL | > 250 µg/mL |  |  |  | 
COC(=O)C1(C#N)Oc2c(c(=O)oc3ccccc23)C1c1ccc(Cl)cc1Cl (stereo unspecified) | > 250 µg/mL | > 250 µg/mL | > 250 µg/mL | > 250 µg/mL | > 250 | > 250 µg/mL | > 250 µg/mL | > 250 µg/mL |  |  |  | 
